Reference: patent US12156938B2, “Liposomes for targeting tumor-associated macrophages” (Universiteit Twente, priority 2018, dated 2024)

B1: IFNγ: cytokine that activates inflammatory M1-type macrophages (protein, UniProt P01579 24-161, looked up)
Interferon gamma: QDPYVKEAENLKKYFNAGHSDVADNGTLFLGILKNWKEESDRKIMQSQIVSFYFKLFKNFKDDQSIQKSVETIKEDMNVKFFNSNKKKRDDFEKLTNYSVTDLNVQRKAIHELIQVMAELSPAAKTGKRKRSQMLFRG

Key:
4T1 breast tumor model [1] = assay: Efficacy of AS1517499-loaded liposomes on tumor growth in the 4T1 breast tumor model; format: in vivo, mice; settings: 8 mg/kg, intravenous route, twice weekly
Procedure: (§1) For efficacy analysis of AS1517499-loaded liposomes, 1×10^5 Luc-cells were injected into the mammary fat pad, and tumors were allowed to develop to a size of 100 mm^3. Thereupon, treatment with AS1517499-loaded liposomes (8 mg/kg, intravenous administrations, twice a week) was started. Before sacrifice, mice were injected with 2.5 mg of D-Luciferin (Perkin-Elmer, Waltham, MA) and were imaged after 15 minutes to detect bioluminescence signal using a Pearl Trilogy imager (LICOR).
Mouse 4T1-Luc cells were injected orthotopic into the mammary fat pad of BalbC mice. The mice were randomly assigned into five groups: a) treated with PBS as the vehicle group, b) treated with free AS, c) treated with AS-HSPC liposomes, d) treated with AS-PAzPC liposomes, e) treated with empty PAzPC liposomes. […] Since the loading of the AS1517499 was little in the liposomes, 8 mg/kg was injected, intravenous route, twice weekly.

4T1 breast tumor model [2] = assay: Effect of AS-loaded liposomes on pre-metastatic niche in liver and lungs (qPCR); format: in vivo, mice; settings: compared to the vehicle group
Procedure: as §1
TAMs display a number of pro-tumoral functions, including extracellular matrix remodeling, neoangiogenesis, suppression of adaptive immunity and facilitate tumor metastasis (Allavena et al. 2012 Exp. Immunol. 167, 195-205, doi:10.1111/j.1365-2249.2011.04515.x). […] As most of cancer related mortalities occur due to metastasis, the effect of AS-loaded liposomes on the pre-metastatic niche in the organs (liver and lungs) of the 4T1 breast tumor was examined using qPCR analysis (FIG. 9).

[3] = test system: 4T1 orthotopic tumor model; settings: free AS1517499, 20 mg/kg; i.p route; cited from earlier work
THP-1 macrophages [4] = assay: Effect of MTP-PE and IFNγ on differentiated THP-1 macrophages (qPCR); format: cell-based, human; settings: for DC-SIGN (M2 marker) expression in TAMs: second experiment, with or without IFNγ
Procedure: (§2) Macrophages were differentiated as reported in [7]. Briefly, THP-1 cells were treated for 24 hours with 100 ng/ml of phorbol 12-myristate 13-acetate (PMA, Cayman Chemicals) to allow their attachment. The medium was replaced by medium containing 20 ng/ml IL-4 and IL-13 (Peprotech, London, UK) for M2 differentiation, or 20 ng/ml IFNγ (Peprotech) and 100 ng/ml LPS (Sigma Aldrich) for M1 differentiation. Cells were incubated with cytokines for 24 hours (gene expression on differentiation), and 72 hours (liposome uptake experiments). BMDMs were plated overnight with a density of 50,000 cells/ml. After 24 hours, medium was aspirated. Cells were incubated for 24 hours in complete RPMI medium containing IL-4 and IL-13 at 10 ng/ml (M2 differentiation) or LPS and IFN-γ at 100 and 10 ng/ml. In case of RAW264.7 cells, M1 macrophages were differentiated using 10 ng-mL murine recombinant IFNγ and 10 ng-mL LPS. M2 macrophages were differentiated using 10 ng-mL murine IL-4 and IL-13.
(§3) 0.5×10^6 RAW264.7/THP-1 cells were plated in 12-well plates, if applicable treated with respective cytokines for differentiation, and activated using PMA. Cells were then incubated with different liposomal preparations (50 μM) or differentiation cytokines for 24 hours. BMDM were differentiated as described above. After differentiation, cells were washed with PBS and then lysed using lysis buffer and total RNA was isolated using SV Total RNA Isolation System (Promega, Madison, WI). cDNA was prepared by using iScript cDNA synthesis kit (Bio-Rad, Hercules, CA) and qRT-PCR was performed with 10 ng of cDNA per reaction mixture using SYBR green assay (Bioline, London, UK). Reactions were measured using the CFX384 Real-Time PCR detection system (Bio-Rad). The threshold cycles (Ct) values were calculated and relative gene expression (ddCt method) was analyzed after normalization using the Rsp18 (THP-1) or Gapdh (RAW264.7/BMDM) house-keeping gene.
Next, the effect of MTP-PE on differentiated human macrophages THP-1 was investigated.
(§4) (IL-1β and TNFα) in TAMs, which indicates the switch of M2 macrophages toward M1 phenotype (FIG. 12A). In the second experiment, IFNγ, a well-known inducer of M1 macrophage differentiation, was tested (Sica et al. 2012 J. Clin. Invest. 122, 787-795, doi:10.1172/JCI59643), and MTP-PE to understand the role of IFNγ potentiation effect on macrophage reprogramming.

RAW 264.7 macrophages = assay: Effect of MTP-PE on differentiated RAW 264.7 macrophages (qPCR); format: cell-based, murine
Procedure: as §2, §3
To study the effect of MTP-PE, murine macrophages RAW 264.7 were first differentiated with IFNγ and LPS for M1 and with IL-4 and IL-13 for M2 macrophages (TAM). […]

THP-1 macrophages [5] = assay: Cell growth after 24-hour treatment of MTP-PE and IFNγ; format: cell-based, human; settings: IFNγ 20 ng/ml
Procedure: FIG. 12. In vitro effects of MTP-PE and IFNγ in differentiated THP-1 macrophages. qPCR analysis of macrophage differentiation with MTP-PE with or without IFNγ for M1 markers IL-1β, IL-6, TNFα and M2 markers for DC-SIGN. […] B) The cell growth was evaluated after 24-hour treatment of MTP-PE and IFNγ C) MTP-PE, in synergy with IFNγ activates tumoricidal properties by inducing more M1 markers. Bars represent mean+SEM, n=3 *p<0.05, **p<0.005, ***p<0.001.
as §4

[6] = increasing concentrations of MTP-PE

| Molecule | Tumor volume/weight compared to the vehicle group (4T1 breast tumor model [1]) | CD31, collagen I, periostin, fibronectin expression in liver samples (4T1 breast tumor model [2]) | Premetastatic niche in liver [3] | Tumor volume compared to the vehicle group [3] | DC-SIGN gene expression (M2 differentiation) (THP-1 macrophages [4]; 1 and 10 ug/ml, first experiment) | M1 type differentiation markers in presence of M1 cytokines (THP-1 macrophages [4]; data not shown) | M1 cytokine markers (IL-1β and TNFα) in TAMs (THP-1 macrophages [4]; first experiment) | DC-SIGN (M2 marker) expression in TAMs (THP-1 macrophages [4]) | Cytokines (IL-1β, IL-6, TNFα) expression in M1 differentiation (RAW 264.7 macrophages; MTP-PE dose-dependent conc., in presence of IFNγ) | M2 macrophage markers (MRC-1, ARG-1) in M2 macrophages (RAW 264.7 macrophages; [6]) | TNFα expression in M2-type macrophages (RAW 264.7 macrophages; [6]) | Cell growth (THP-1 macrophages [5]) |
| --- | --- | --- | --- | --- | --- | --- | --- | --- | --- | --- | --- | --- |
| NC(=O)c1cnc(NCCc2ccc(O)c(Cl)c2)nc1NCc1ccccc1 [AS1517499] | no difference in tumor volume/weight | no statistically significant difference | reduced premetastatic niche in liver | inhibited tumor volume significantly |  |  |  |  |  |  |  |  |
| muramyl tripeptide-phosphatidyl ethanolamine [MTP-PE] |  |  |  |  | reduced expression of DC-SIGN gene | increased the M1 type differentiation markers | induced M1 cytokine markers | reduced the expression of DC-SIGN | increasing the cytokines (IL-1β, IL-6, TNFα) expression | did not show any inhibition | increased TNFα expression | no direct effect on the cell growth |
| B1 |  |  |  |  |  |  |  | increased expression of DC-SIGN |  |  |  | reduced the cell growth significantly |
